# Test results reported in US10946036B2, “Use of myostatin inhibitors and combination therapies” (Scholar Rock, Inc., priority 2016, dated 2021).
# pKd: −log10 of the molar value. “Also recorded” adds a separate entry of the source. Where two headings read alike, the source gives them in different places.
# Assays:
# [1] = in vivo; cited from earlier work
# [2] = tested on: preclinical models of SMA (mice); conditions: cited from earlier work; for blood brain barrier (BBB) crossing: mouse, in vivo; for SMN protein levels compared to vehicle: oral dosing, brain and muscle
# Δ7 mice = conditions: 0.1 mg/kg/day from birth; cited from earlier work
# [3] = tested on: dexamethasone treated mice; assay: Dexamethasone-induced muscle atrophy in mice; type: in vivo, mouse
# Description: (§1) FIG. 2A and FIG. 2B provide a summary of dexamethasone-induced atrophy in mice: FIG. 2A illustrates the experimental model of single-dose SRK-015 treatment in healthy and atrophy-induced mice; FIG. 2B provides changes in gastrocnemius muscle weights measured at the indicated time points.
# (§2) SRK-015 increased muscle mass in healthy animals and reduced muscle loss in a dexamethasone-induced model of atrophy. […] SRK-015 was also effective in preventing muscle loss upon dexamethasone treatment.
# murine proMyostatin = assay: Binding to murine proMyostatin; set-up: species or system mouse
# GDF11 = assay: Binding specificity: GDF11; conditions: any form of GDF11
# Activin A = assay: Binding specificity: Activin A; conditions: any form
# mature BMP9 = target: T1, mature BMP9 (Homo sapiens, UniProt Q9UK05); assay: Binding specificity: mature BMP9
# T1 sequence (Q9UK05 320-429): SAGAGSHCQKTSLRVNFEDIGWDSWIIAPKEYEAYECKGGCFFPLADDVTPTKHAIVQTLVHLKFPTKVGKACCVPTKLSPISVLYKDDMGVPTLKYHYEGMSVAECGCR
# mature BMP10 = target: T2, mature BMP10 (Homo sapiens, UniProt O95393); assay: Binding specificity: mature BMP10
# T2 sequence (O95393 317-424): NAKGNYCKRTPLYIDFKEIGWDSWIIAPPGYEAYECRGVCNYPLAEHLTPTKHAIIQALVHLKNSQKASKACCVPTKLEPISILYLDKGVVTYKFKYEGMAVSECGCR
# mature TGFβ1 = mature TGFβ1 (Homo sapiens, UniProt P01137); assay: Binding specificity: mature TGFβ1
# mature GDF-8 = mature GDF-8 (Homo sapiens, UniProt O14793); assay: Binding specificity: mature GDF-8
# Protocol: In some embodiments, suitable dosage of SRK-015 for administration in human patients for the treatment of SMA ranges between 1 and 30 mg/kg, e.g., 1-5 mg/kg, 3-5 mg/kg, 3-10 mg/kg, 5-10 mg/kg, 5-15 mg/kg, 5-20 mg/kg, 10-20 mg/kg, etc. In some embodiments, the patient is administered SRK-015 once a week, once every two weeks, once every three weeks, once a month, once every six weeks, etc.
# proMyostatin [4] = target: T3, proMyostatin (Homo sapiens, UniProt O14793); assay: proMyostatin activation assay, Smad2/3 luciferase reporter cell line; type: cell-based; conditions: proMyostatin incubated with furin and mTTL-2 proteases
# T3 construct: made in house; host or cells: mammalian expression system
# Description: (§3) Antibody SRK-015P (“P” for parental) was optimized to generate SRK-015, a fully human monoclonal antibody. SRK-015 differs from its parental clone by five residues in the variable domain outside the complementarity determining region. […] Both SRK-015 and SRK-015P had similar functional activity towards human and mouse proMyostatin in the reporter assay such that EC50 values for the two antibodies in proMyostatin activation assay using human and mouse proMyostatin, are similar. […] The ability of SRK-015 to bind the myostatin prodomain and to inhibit tolloid cleavage has been shown. Purified recombinant latent myostatin was incubated with TLL-2 tolloid protease in the presence of increasing concentrations of SRK-015. Samples were separated by reducing SDS-PAGE and probed by Western blot with an antibody that recognizes the myostatin prodomain.
# proMyostatin [5] = target: T3, proMyostatin; assay: proMyostatin activation reporter assay, human proMyostatin; type: cell-based
# Description: as §3
# mouse proMyostatin = target: T4, mouse proMyostatin (Mus musculus, UniProt O08689); assay: proMyostatin activation reporter assay, mouse proMyostatin; type: cell-based
# T4 construct: made in house; host or cells: mammalian expression system
# Description: as §3
# proGDF11 = proGDF11 (Homo sapiens, UniProt O95390); assay: Protease activity reporter assay using proGDF11 as substrate; type: cell-based
# mature myostatin = mature myostatin (Homo sapiens, UniProt O14793); assay: Mature myostatin signaling in Smad2/3 reporter assay; type: cell-based
# latent myostatin [6] = target: T5, latent myostatin (Homo sapiens, UniProt O14793); assay: TLL-2 tolloid cleavage of latent myostatin, Western blot; type: biochemical; conditions: increasing antibody concentrations
# T5 construct: Following cleavage, the growth factor and prodomain remain associated, forming a latent complex (latent myostatin)
# Description: as §3
# healthy male mice = assay: Muscle mass in healthy mice after single dose; type: in vivo, mouse; conditions: single 20 mg/kg dose, after 15 days
# Description: as §1, §2
# [7] = Pharmacokinetics in scid mice, anti-human IgG ELISA; type: in vivo, mouse; conditions: single 5 mg/kg IV dose, serum
# Protocol: (§4) Male scid mice were administered a single 5 mg/kg IV dose of SRK-015. Separate cohorts of mice were sacrificed 4 hours, 2, 8, 15, 22, 29, and 56 days post dose, and serum and TA muscles collected for PK and target engagement assays. N=4 or 8 per group. SRK-015 levels were determined from serum samples taken at the indicated times after dosing. Analysis was performed using an anti-human IgG ELISA. The half-life of SRK-015 in scid mice at 5 mg/kg was ˜20.3 days.
# scid mice = assay: Lean mass by qNMR in scid mice; type: in vivo, mouse; conditions: single 5 mg/kg dose
# Protocol: as §4
# (§5) Lean mass was measured with qNMR at the indicated timepoints after dosing. […] Target engagement was assessed by analyzing levels of latent myostatin in serum and muscle using western blot. Binding to SRK-015 results in accumulation of latent myostatin as the bound target assumes the half-life of the antibody and accumulates in circulation and in the target tissues. […] Samples from three mice from each cohort were analyzed.
# latent myostatin [8] = target: T6, latent myostatin (Mus musculus, UniProt O08689); assay: Target engagement in serum and muscle of scid mice, western blot; type: in vivo; conditions: single 5 mg/kg dose
# T6 construct: from tissue; host or cells: mouse serum and tibialis anterior muscle
# Protocol: as §4, §5
# [9] = Pharmacokinetics in cynomolgus monkeys, ELISA; type: in vivo; conditions: for T1/2: post-dosing period
# Protocol: (§6) SRK-015 PK properties were also determined in cynomolgus monkeys. Two- to three-year old male animals (average age 34 months) were administered weekly doses of 3 mg/kg or 30 mg/kg SRK-015 for 8 weeks. Following the last dose, animals were followed for an additional five weeks in the absence of drug administration. Samples from this post-dosing period were used to calculate PK parameters. […] Antibody levels were assessed by ELISA.
# cynomolgus monkeys = assay: Muscle weights in cynomolgus monkeys; type: in vivo
# Protocol: as §6
# (§7) At study termination animals were sacrificed five weeks after the last dose as described in above and muscle weights were determined. Gastrocnemius and Biceps brachii muscles (FIG. 10A and FIG. 10B, respectively) show increased mass following SRK-015 treatment. Gastrocnemius weights increased 21% in the 3 mg/kg groups, and 23% in the 30 mg/kg groups relative to vehicle control. * indicates statistically significant difference from vehicle by one-way ANOVA; P<0.007. Biceps brachii weights increased 18% in the 3 mg/kg groups, and 25% in the 30 mg/kg group relative to vehicle control. * indicates statistically significant difference from vehicle by one-way ANOVA; P<0.02. […] Serum samples were collected at the indicated study day and analyzed by semi-quantitative western blot analysis. Accumulation of latent myostatin, indicative of SRK-015 binding, is evident by day 8. Target continues to accumulate as additional doses are administered. Latent myostatin levels were quantified as described in Example 7 above. The effects of SRK-015 on muscle weight indicate that even at lower end of dosage (e.g., 3 mg/kg/week) SRK-015 is at or near the level of target engagement necessary for maximal efficacy.
# latent myostatin [10] = target: T7, latent myostatin (Macaca fascicularis, UniProt Q95J86); assay: Target engagement in cynomolgus serum, semi-quantitative western blot; type: in vivo, cynomolgus monkeys; conditions: 3 mg/kg or 30 mg/kg weekly
# T7 construct: from tissue; host or cells: cynomolgus monkey serum
# Protocol: as §7
# [11] = tested on: infantile-onset SMA (type I) patients; conditions: cited from earlier work
# Type II SMA patients = conditions: cited from earlier work; for HFMSE score increase relative to placebo group: mean
# SMA patients = conditions: human, in vivo; cited from earlier work
# [12] = 3 mg/kg weekly x8, five weeks after last dose
# [13] = 30 mg/kg weekly x8, five weeks after last dose
# Chain of mature TGFβ1 (P01137 279-390 limits assumed): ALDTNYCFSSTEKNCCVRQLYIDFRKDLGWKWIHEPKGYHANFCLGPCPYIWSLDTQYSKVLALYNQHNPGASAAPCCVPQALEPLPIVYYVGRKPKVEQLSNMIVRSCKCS
# Chain of proGDF11 (O95390 299-407): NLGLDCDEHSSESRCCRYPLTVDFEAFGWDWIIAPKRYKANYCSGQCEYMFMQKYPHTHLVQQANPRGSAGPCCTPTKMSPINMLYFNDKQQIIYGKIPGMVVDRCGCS
molecule,measurement,setting,value
CC1(C)CC(Oc2ccc(-c3ccc(-c4cn[nH]c4)cc3O)nn2)CC(C)(C)N1 [LMI070],preclinical toxicity findings,[1],"injuries to the peripheral nerves and spinal cord, testes, and blood vessels in the kidney"
CCc1nc(C)cn2nc(-c3cc(=O)n4cc(C5CCN(C)CC5)cc(C)c4n3)cc12 [RG7800],blood brain barrier (BBB) crossing,[2],efficiently crossed the blood brain barrier
same,SMN protein levels compared to vehicle,[2],increased SMN protein levels in both brain and muscle tissues
Cc1cn2cc(-c3cc4ccc(N5CCN(C)CC5)cc4c(=O)o3)nc2c(C)n1 [SMN-C1],treated mice surviving to post-natal day (PND) 52,Δ7 mice,70%
CCN1CCN(c2ccc3cc(-c4cn5cc(C)nc(C)c5n4)c(=O)oc3c2)C[C@@H]1C [SMN-C2],blood brain barrier (BBB) crossing,[2],efficiently crossed the blood brain barrier
same,SMN protein levels compared to vehicle,[2],increased SMN protein levels in both brain and muscle tissues
CCN1CCC(c2cc(C)c3nc(-c4cc5c(C)nc(C)cn5n4)cc(=O)n3c2)CC1 [SMN-C3],blood brain barrier (BBB) crossing,[2],efficiently crossed the blood brain barrier
same,SMN protein levels compared to vehicle,[2],increased SMN protein levels in both brain and muscle tissues
"C[C@@H]1C[C@H]2[C@@H]3CCC4=CC(=O)C=C[C@]4(C)[C@@]3(F)[C@@H](O)C[C@]2(C)[C@@]1(O)C(=O)CO [dexamethasone, reference compound]","loss of muscle mass, IgG vehicle versus IgG Dex","[3]; chronic administration, by day 8",16%
SRK-015: fully human monoclonal antibody optimized from SRK-015P; binds pro/latent myostatin and inhibits release of mature growth factor,pKd,murine proMyostatin,8.08
same,binding to GDF11,GDF11,does not bind; also recorded: no detectable binding
same,binding to Activin A,Activin A,no detectable binding
same,binding to mature BMP9,mature BMP9,no detectable binding
same,binding to mature BMP10,mature BMP10,no detectable binding
same,binding to mature TGFβ1,mature TGFβ1,no detectable binding
same,binding to mature GDF-8,mature GDF-8,does not bind
same,"release of mature myostatin, measured by luciferase expression",proMyostatin [4],inhibited release of mature myostatin
same,"EC50 in proMyostatin activation assay, the two antibodies compared",proMyostatin [5],similar
same,"EC50 in proMyostatin activation assay, the two antibodies compared",mouse proMyostatin,similar
same,effect in protease activity assay with proGDF11,proGDF11,no effect
same,inhibition of mature myostatin signaling,mature myostatin,did not inhibit
same,tolloid-mediated cleavage of latent myostatin,latent myostatin [6],inhibited the second (tolloid-mediated) proteolysis step
same,increase in muscle mass versus IgG control,healthy male mice,17.5%
same,muscle atrophy under dexamethasone,"[3]; single 20 mg/kg dose, throughout the study",prevented muscle atrophy
same,half-life,[7],~487 h
same,lean mass relative to IgG control,scid mice,significant increase in lean mass
same,onset of significant target engagement in circulation,latent myostatin [8],within four hours
same,onset of significant target engagement in muscle,latent myostatin [8],within two days
same,target engagement at 56 days post-dosing,latent myostatin [8],no longer observed
same,target engagement sustained out to,latent myostatin [8],29 days post dose
same,AUClast,[9]; 3 mg/kg weekly for 8 weeks,60799 hr▪ng/ml
same,Cmax,[9]; 3 mg/kg weekly for 8 weeks,243 ng/mL
same,Tmax,[9]; 3 mg/kg weekly for 8 weeks,51 h
same,T1/2,[9]; 3 mg/kg weekly for 8 weeks,12.4 h
same,AUClast,[9]; 30 mg/kg weekly for 8 weeks,1070638 hr▪ng/ml
same,Cmax,[9]; 30 mg/kg weekly for 8 weeks,2648 ng/mL
same,Tmax,[9]; 30 mg/kg weekly for 8 weeks,15 h
same,T1/2,[9]; 30 mg/kg weekly for 8 weeks,22.2 h
same,Biceps brachii weight increase relative to vehicle control,cynomolgus monkeys; [12],18%
same,Gastrocnemius weight increase relative to vehicle control,cynomolgus monkeys; [12],21%
same,Biceps brachii weight increase relative to vehicle control,cynomolgus monkeys; [13],25%
same,Gastrocnemius weight increase relative to vehicle control,cynomolgus monkeys; [13],23%
same,target engagement in serum,latent myostatin [10],engaged latent myostatin at both doses tested
same,accumulation of latent myostatin evident by,latent myostatin [10]; serum,≤ 8 days
nusinersen,treated patients able to sit unaided,[11]; Type I patients,five of 81
same,patients reported to be non-responders,[11]; infantile-onset SMA (type I),60%
same,treated patients with improvements in motor milestones (Hammersmith Infant Neurological Examination),"[11]; interim analysis, 0% placebo",41%
same,patients not attaining at least 3-point HFMSE improvement,Type II SMA patients; in vivo,43%
same,HFMSE score increase relative to placebo group,Type II SMA patients,5.9 points
same,HFMSE score increase relative to placebo group,Type II SMA patients; listed as Nusinersen,less than 6 points
same,compound muscle action potential (CMAP) amplitudes,SMA patients,improvements
